# Results published in ChEMBL document CHEMBL4613308, “Screen of Unfocused Libraries Identified Compounds with Direct or Synergistic Antibacterial Activity” (ACS Med Chem Lett, 2020).
# Key:
# Escherichia coli [1] = assay: Antibacterial activity against Escherichia coli CCUG assessed as bacterial growth inhibition by agar diffusion assay; format: functional
# Klebsiella pneumoniae [2] = assay: Antibacterial activity against Klebsiella pneumoniae ATCC 13833 assessed as bacterial growth inhibition by agar diffusion assay; format: functional
# Pseudomonas aeruginosa [3] = assay: Antibacterial activity against Pseudomonas aeruginosa ATCC 27853 assessed as bacterial growth inhibition by agar diffusion assay; format: functional
# Acinetobacter baumannii [4] = assay: Antibacterial activity against Acinetobacter baumannii ATCC 17978 assessed as bacterial growth inhibition by agar diffusion assay; format: functional
# Acinetobacter baumannii [5] = assay: Synergistic antibacterial activity against Acinetobacter baumannii ATCC 17978 in presence of 0.5 times MIC of colistin by microdilution broth method; format: functional
# Escherichia coli [6] = assay: Synergistic antibacterial activity against Escherichia coli CCUG in presence of 0.5 times MIC of colistin by microdilution broth method; format: functional
# Klebsiella pneumoniae [7] = assay: Synergistic antibacterial activity against Klebsiella pneumoniae ATCC 13833 in presence of 0.5 times MIC of colistin by microdilution broth method; format: functional
# Pseudomonas aeruginosa [8] = assay: Synergistic antibacterial activity against Pseudomonas aeruginosa ATCC 27853 in presence of 0.5 times MIC of colistin by microdilution broth method; format: functional
# Acinetobacter baumannii [9] = assay: Synergistic antibacterial activity against Acinetobacter baumannii ATCC 17978 assessed as fractional inhibitory concentration index in presence of colistin by Checkerboard assay; format: functional
# Pseudomonas aeruginosa [10] = assay: Synergistic antibacterial activity against Pseudomonas aeruginosa ATCC 27853 assessed as fractional inhibitory concentration index in presence of colistin by Checkerboard assay; format: functional
# Acinetobacter baumannii [11] = assay: Potentiation of colistin-induced antibacterial activity against Acinetobacter baumannii ATCC 17978 assessed as fold reduction in colistin MIC by microdilution broth method relative to colistin MIC; format: functional
# Escherichia coli [12] = assay: Potentiation of colistin-induced antibacterial activity against Escherichia coli CCUG assessed as fold reduction in colistin MIC in by microdilution broth method relative to colistin MIC; format: functional
# Klebsiella pneumoniae [13] = assay: Potentiation of colistin-induced antibacterial activity against Klebsiella pneumoniae ATCC 13833 assessed as fold reduction in colistin MIC by microdilution broth method relative to colistin MIC; format: functional
# Pseudomonas aeruginosa [14] = assay: Potentiation of colistin-induced antibacterial activity against Pseudomonas aeruginosa ATCC 27853 assessed as fold reduction in colistin MIC by microdilution broth method relative to colistin MIC; format: functional
# Klebsiella pneumoniae [15] = assay: Synergistic antibacterial activity against colistin-resistant Klebsiella pneumoniae SI-004Bo clinical isolate in presence of 2 ug/ml colistin by microdilution broth method (reference value: 64 ug/ml); format: functional
# Klebsiella pneumoniae [16] = assay: Synergistic antibacterial activity against colistin-resistant Klebsiella pneumoniae SI-081R clinical isolate in presence of 2 ug/ml colistin by microdilution broth method (reference value: 256 ug/ml); format: functional
# Acinetobacter baumannii [17] = assay: Synergistic antibacterial activity against multidrug-resistant Acinetobacter baumannii N50 in presence of 2 ug/ml colistin by microdilution broth method; format: functional
# HeLa = assay: Cytotoxicity against human HeLa cells assessed as reduction in cell viability assay by CellTox-Green assay; format: cell-based
# Acinetobacter baumannii [18] = assay: Synergistic antibacterial activity against multidrug-resistant Acinetobacter baumannii N50 assessed as fractional inhibitory concentration index in presence of colistin by checkerboard assay; format: functional
smiles,measurement,setting,value
CCCCCc1cc(O)cc(OCCCCCCCCCCC(=O)NCCO)c1,MIC,Escherichia coli [1],> 512 µg/mL
same,MIC,Klebsiella pneumoniae [2],> 512 µg/mL
same,MIC,Pseudomonas aeruginosa [3],> 512 µg/mL
same,MIC,Acinetobacter baumannii [4],> 512 µg/mL
same,MIC,Acinetobacter baumannii [5],2 µg/mL
same,MIC,Escherichia coli [6],8 µg/mL
same,MIC,Klebsiella pneumoniae [7],4 µg/mL
same,MIC,Pseudomonas aeruginosa [8],2 µg/mL
same,fractional inhibitory concentration index (FICI),Acinetobacter baumannii [9],0.29
same,fractional inhibitory concentration index (FICI),Pseudomonas aeruginosa [10],0.41
same,log2FC,Acinetobacter baumannii [11],8
same,log2FC,Escherichia coli [12],6
same,log2FC,Klebsiella pneumoniae [13],7
same,log2FC,Pseudomonas aeruginosa [14],8
same,MIC,Klebsiella pneumoniae [15],> 64 µg/mL
same,MIC,Klebsiella pneumoniae [16],> 64 µg/mL
same,MIC,Acinetobacter baumannii [17],2 µg/mL
same,IC50,HeLa,25 µg/mL
same,fractional inhibitory concentration index (FICI),Acinetobacter baumannii [18],0.062
